The text below walks through data of patent US8293786B2 (Alltranz Inc., priority 2007, dated 2012).

Each structure is given as a SMILES string. Entries after “also recorded” stand apart in the source; their conditions may differ. Counter-ions that a name gives are not always drawn.

The data set has as its system human abdominal skin. In words: In vitro human skin permeation and skin disposition, flow-through diffusion cells (Examples 2, 2A, 2B). It is filed as in vitro ADME. The following applies: for 24 h cumulative amt / 24 h skin conc / Flux / Lag time / Flux enhancement: 40% aqueous PEG 400 receiver fluid; for Flux enhancement: total cannabidiol versus cannabidiol. Here is the method: Flow through diffusion cells were used for the permeation studies. HEPES-buffered Hanks' balanced salts containing 40% PEG 400 with gentamicin or 40% aqueous PEG 400 with gentamicin were used for the receiver compartment. Donor solution was comprised of 90:8:2 PG:H2O:IPM solution or gel formulation. […] Drug accumulation in the skin after a 24, 30 or 42 h diffusion experiment was determined as μmol/g wet tissue weight.
The skin samples used in the following experiments were obtained from abdominal reduction surgery and dermatomed to a thickness of approximately 200 μm. The skin samples used herein were frozen at −20° C. for less than six months.
One (1) L of receiver fluid was prepared by measuring 1 L of nanopure water into a graduated cylinder. 90% of the water was added to an Erlenmeyer flask. Hanks' salts (1 bottle) were added to the water along with 5.96 g of HEPES and 0.35 g of sodium bicarbonate. The pH of the solution was adjusted with 1 N sodium hydroxide solution to pH 7.4. The remaining water was added and the receiver fluid was filtered through a 0.2μ filter (Millipore, Billerica, Mass.). Fifty (50) mg of gentamicin was added to the filtered receiver fluid and 400 mL of the receiver fluid was removed and replaced with 400 mL of PEG 400.
The receiver fluid was prepared by measuring 600 mL of nanopure H2O into a graduated cylinder. The H2O was filtered through a 0.2μ filter (Millipore, Billerica, Mass.). Fifty (50) mg of gentamicin was added to the filtered H2O and 400 mL of PEG 400 was added.
The prodrugs were made up in a solution of 45:4:1 PG:H2O:IPM. For this solution, the appropriate amount of drug was weighed into a glass silanized culture tube and IPM was added, the 50 μL of PG to coat the drug, then an additional 247 μL PG was added and the donor solution was vortexed again. Finally 26 μL of water was added. The gel formulation resulted from the mixing of absolute ethanol, nanopure water, IPM, Carbopol® 980, 0.1 N sodium hydroxide solution and the respective drug.
The gel formulation was comprised of absolute ethanol, nanopure water, IPM, Carbopol® 980, 0.1 sodium hydroxide solution and respective drug. The anhydrous gel was comprised of absolute ethanol, PEG monoethyl ether 550, Klucel® hydroxypropylcellulose, and respective drug.
Dermatomed skin harvested from abdominoplasty, stored at −20° C., was used for the experiments. A PermeGear flow-through (In-Line, Hellertown, Pa.) diffusion cell system was used for the skin permeation studies.
Diffusion cells were kept at 32° C. with a circulating water bath. Human epidermal skin was arranged in the diffusion cell with stratum corneum (upper layer of skin) facing the donor compartment. The permeation area of the skin was 0.95 cm^2. The data was collected from a human skin donor with three diffusion cells per treatment.
The receiver solution was HEPES-buffered Hanks' balanced salts with gentamicin containing 40% PEG 400 at a pH of 7.4 or 40% aqueous PEG 400 and flow rate was adjusted to 0.8 mL/h. Each cell was charged with 0.10 mL of the respective drug formulation (donor solution) or 50 μL of gel formulation which was rubbed into the skin for 15 sec with a Teflon coated rod. The formulation was applied to ensure complete coverage. […]. Diffusion cells were covered with a stopper or cap for the duration of the study.
Samples were collected into scintillation vials in 3 h increments for either 24, 30, or 42 h. All the samples were stored at 4° C. until extracted. An aliquot (0.5 mL) of the diffusion sample was placed into a silanized HPLC vial and 0.5 mL of acetonitrile was added to the sample, capped and vortexed.
At the end of the experiment, the skin tissue was removed from the diffusion cell, rinsed with nanopure water, and blotted dry with a paper towel. The skin was tape stripped twice using book tape (Scotch™, 3M, St. Paul, Minn.) to remove drug formulation adhering to the tissue surface.

Where [1] appears, read: Table 19, gel formulation, CBD from applied prodrug.
The mark [2] stands for this setting: Table 19, gel formulation, as applied compound (CBD or intact prodrug).
[3] abbreviates: Table 19, gel formulation, prodrug applied, as total cannabidiol equivalents.
Setting [4] is: Table 21, gel formulation, CBD from applied prodrug.
Where [5] appears, read: Table 21, gel formulation, as applied compound (CBD or intact prodrug).
The mark [6] stands for this setting: Table 21, gel formulation, prodrug applied, as total cannabidiol equivalents.
The mark [7] stands for this setting: Table 23, gel formulation, CBD from applied prodrug.
[8] abbreviates: in an anhydrous gel formulation.

`C=C(C)[C@@H]1CCC(C)=C[C@H]1c1c(O)cc(CCCCC)cc1OC=O` [ALL00146, CBD Formate]: the “24 h cumulative amt” value turned out to be 10.7 ± 0.5 nmol under setting [1]; 4.0 ± 0.0 nmol under setting [2]; 12.7 ± 2.3 nmol under setting [3]; 2.7 ± 1.4 nmol under setting [4]; 2.7 ± 1.4 nmol under setting [6]; 5.9 nmol under setting [7]. Further, the “24 h skin conc” value by setting is: under setting [1], 0.8 ± 0.1 µmol/g; under setting [2], 3.3 ± 0.5 µmol/g; under setting [3], 4.1 ± 0.4 µmol/g; under setting [4], 3.7 ± 2.1 µmol/g; under setting [5], 16.0 ± 9.8 µmol/g; under setting [6], 19.7 ± 11.9 µmol/g. In addition, the Flux under setting [1] is 0.8 ± 0.1 nmol/cm^2/h; the Flux under setting [2] came to 0.3 ± 0.0 nmol/cm^2/h; the Flux under setting [3] worked out at 0.9 ± 0.1 nmol/cm^2/h; the Flux under setting [4] came out at 0.2 ± 0.1 nmol/cm^2/h; the Flux under setting [6] is 0.2 ± 0.1 nmol/cm^2/h; the Flux under setting [7] came to 0.26 nmol/cm^2/h. The Lag time is given as 9.1 ± 0.9 h under setting [1]; 7.0 ± 0.0 h under setting [2]; 8.9 ± 1.1 h under setting [3]; 9.8 ± 3.7 h under setting [4]; 9.8 ± 3.7 h under setting [6]; 0.4 h under setting [7]. The Flux enhancement is on record as 1.09 (Table 19, gel formulation) and 0.53 (Table 21, gel formulation). Also, the “detected in the skin as” value (in gel formulation) was “intact prodrug and cannabidiol; also recorded: small amount of cannabidiol with the remaining being prodrug”. Also, the “flux compared to cannabidiol” value (in gel formulation) is reported as “did slightly increase the flux; also recorded: didn't increase the flux”.

Turning to `C=C(C)C1CCC(C)=CC1c1c(O)cc(CCCCC)cc1OC(=O)CN(C)C` (centres unmarked) [ALL00148, CBD N,N-dimethylglycinate], the “24 h skin conc” value under setting [1] is 2.4 ± 2.1 µmol/g. Further, under setting [2], the “24 h cumulative amt” value is recorded as 8.0 ± 1.8 nmol, the “24 h skin conc” value was 20.8 ± 21.1 µmol/g, the Flux stood at 0.5 ± 0.1 nmol/cm^2/h and the Lag time stood at 7.6 ± 2.1 h. Besides, under setting [3], the “24 h cumulative amt” value worked out at 8.0 ± 1.8 nmol, the “24 h skin conc” value worked out at 23.2 ± 23.2 µmol/g, the Flux was determined as 0.5 ± 0.1 nmol/cm^2/h and the Lag time is recorded as 7.6 ± 2.1 h. Under “Table 19, gel formulation”, the Flux enhancement is recorded as 0.63. Besides, under “in gel formulation”, the “detected in the skin as” value is “mostly intact prodrug and small amounts of cannabidiol”; the “flux compared to cannabidiol” value is “did not increase the flux”; the “lag time compared to cannabidiol” value is “similar”; the “permeated through the skin as” value is on record as “intact prodrug only”. For the same compound, under “in gel formulation”, the “total skin concentrations compared to cannabidiol” value is given as “higher”.

For the compound `C=C(C)C1CCC(C)=CC1c1c(O)cc(CCCCC)cc1OC(=O)CCN(C)C` (centres unmarked) [ALL00150, CBD 3-(dimethylamino)propionate], the “24 h skin conc” value by setting is: under setting [4], 7.9 ± 2.3 µmol/g; under setting [5], 47.7 ± 3.0 µmol/g; under setting [6], 55.6 ± 5.3 µmol/g; (Table 22, anhydrous gel formulation, CBD from applied prodrug) 1.1 ± 0.8 µmol/g; (Table 22, anhydrous gel formulation, as applied compound (CBD or intact prodrug)) 5.6 ± 3.1 µmol/g; (Table 22, anhydrous gel formulation, prodrug applied, as total cannabidiol equivalents) 6.7 ± 3.8 µmol/g. The “concentrations in the skin, anhydrous gel formulation compared to the ethanol based gel formulation” value (anhydrous gel versus ethanol based gel) is reported as “much lower”. Moreover, the “detected in the skin as” value reads like this: under setting [8], “ALL00150 and cannabidiol”; (in gel formulation) “primarily ALL00150 with a small amount of cannabidiol”. Besides, under setting [8], the “permeation through the skin” value is on record as “did not permeate through the skin”. The “total skin concentrations compared to cannabidiol” value under setting [8] is recorded as “higher” and the “total skin concentrations compared to cannabidiol” value (in gel formulation) is listed as “higher”. Besides, the “permeated through the skin as” value (in gel formulation) was “did not permeate through the skin”.
